Reference: article PMC6440977, “Nucleoside analogue activators of cyclic AMP-independent protein kinase A of Trypanosoma” (Nature Communications, 2019)
Values joined by “and” are separate entries in the source; they are usually repeats but may differ in a detail not shown here. Equal values may be shown once. Ends that are not written are not given here. * marks the point of attachment. Myristoyl = CCCCCCCCCCCCCC(=O)*

Legend:
T. brucei PKA = T. brucei PKA (Trypanosoma brucei brucei, UniProt Q9GU80); experiment: In vivo PKA reporter assay (VASP Ser-157 phosphorylation, western blot); type: cell-based; conditions: for % VASP phosphorylation: independent replicates; for effect on in vivo PKA activity (VASP phosphorylation), in words: wild type background;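 on % VASP phosphorylation: Phosphorylated VASP as percent of total VASP band signal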;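 on all read-outs here: T. brucei cells expressing human VASP as heterologous PKA substrate, compound exposure at 37 °C, western blot of phospho (50 kDa) versus unphosphorylated (46 kDa) VASP band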
[1] = test system: T. brucei ∆pkar/∆pkar (pkar KO) cells; experiment: microbe, parasite or virus in culture; type: cell-based, Trypanosoma brucei; conditions: read-out: EC50, Alamar blue cell viability assay, KO; individual replicate results; pkar KO cells
T. brucei BSF cells (WT) = experiment: Alamar blue cell viability assay, wild type; conditions: read-out: EC50, Alamar blue cell viability assay, WT; individual replicate results; wild type cells;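 further: trypanosomes seeded at 5×10^3 per ml and grown 72 h with compound, then resazurin 0.5 mM added for 4 h as the viability read-out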
[2] = biological target: T. brucei PKAR-PKAC1 holoenzyme (Trypanosoma brucei, UniProt Q9GU80); experiment: biochemical; type: biochemical; conditions: for In vitro kinase assay: technical replicates
[3] = test system: T. brucei PKA holoenzyme (Ty1-PKAC1); type: biochemical, Trypanosoma brucei

Chain of T. brucei PKAR-PKAC1 holoenzyme (Q38DR5 entry or part of it): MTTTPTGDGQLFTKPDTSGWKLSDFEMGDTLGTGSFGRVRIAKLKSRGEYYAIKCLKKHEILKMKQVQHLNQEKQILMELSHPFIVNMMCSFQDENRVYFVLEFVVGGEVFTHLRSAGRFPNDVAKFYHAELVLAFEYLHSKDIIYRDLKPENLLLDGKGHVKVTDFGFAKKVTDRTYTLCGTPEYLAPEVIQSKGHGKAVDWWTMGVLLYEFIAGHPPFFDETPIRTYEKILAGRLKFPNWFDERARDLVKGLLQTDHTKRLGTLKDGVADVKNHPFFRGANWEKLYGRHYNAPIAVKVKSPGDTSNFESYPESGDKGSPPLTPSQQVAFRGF
Chain of T. brucei PKAR-PKAC1 holoenzyme (Q9GU80 entry or part of it): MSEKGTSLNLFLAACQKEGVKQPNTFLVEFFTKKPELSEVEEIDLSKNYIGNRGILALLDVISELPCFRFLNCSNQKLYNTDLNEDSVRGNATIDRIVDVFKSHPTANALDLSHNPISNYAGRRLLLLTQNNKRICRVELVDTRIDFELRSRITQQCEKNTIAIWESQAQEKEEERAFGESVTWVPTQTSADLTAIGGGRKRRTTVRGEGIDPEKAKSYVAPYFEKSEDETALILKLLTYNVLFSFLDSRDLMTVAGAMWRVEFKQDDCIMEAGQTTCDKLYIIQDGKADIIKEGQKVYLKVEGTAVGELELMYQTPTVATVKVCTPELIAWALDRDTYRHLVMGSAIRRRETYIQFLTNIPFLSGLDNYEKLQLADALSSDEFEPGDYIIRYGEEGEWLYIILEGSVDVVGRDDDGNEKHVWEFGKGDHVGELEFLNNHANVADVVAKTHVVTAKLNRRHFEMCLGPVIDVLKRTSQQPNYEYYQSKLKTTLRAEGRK
Chain of T. brucei PKA (Q38DS1 entry or part of it): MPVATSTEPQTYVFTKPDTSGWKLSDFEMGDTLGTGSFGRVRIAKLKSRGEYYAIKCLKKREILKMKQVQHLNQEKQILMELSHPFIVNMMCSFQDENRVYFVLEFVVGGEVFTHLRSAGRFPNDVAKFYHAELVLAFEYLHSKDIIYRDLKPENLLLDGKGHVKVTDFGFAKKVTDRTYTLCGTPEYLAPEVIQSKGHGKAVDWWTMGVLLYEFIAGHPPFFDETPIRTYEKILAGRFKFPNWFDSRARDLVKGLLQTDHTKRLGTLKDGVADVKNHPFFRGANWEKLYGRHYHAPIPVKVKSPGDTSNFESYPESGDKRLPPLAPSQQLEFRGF
Chain of T. brucei PKA (Q38DR5 entry or part of it, further chain): as the sequence (Q38DR5 entry or part of it) above
Chain of T. brucei PKA (Q9GU80 entry or part of it): as the sequence (Q9GU80 entry or part of it) above

Molecule: Nc1nc2c(nc(Sc3ccc(Cl)cc3)n2[C@@H]2O[C@@H]3COP(=O)(O)O[C@H]3[C@H]2O)c(=O)[nH]1 [8-pCPT-cGMP, 8-(4-Chlorophenylthio)guanosine-3',5'-cyclic monophosphate]
- % VASP phosphorylation (T. brucei PKA; 10 µM): 25.8142% and 29.2369% and 19.6808%
- % VASP phosphorylation (T. brucei PKA; 50 µM): 27.9869% and 31.8421% and 17.4767%
- % VASP phosphorylation (T. brucei PKA; 100 µM): 30.4284% and 21.992% and 28.117%
- % VASP phosphorylation (T. brucei PKA; 250 µM): 30.7048% and 20.4067% and 21.3305%
- % VASP phosphorylation (T. brucei PKA; 1000 µM): 32.0969% and 20.8683% and 24.288%

Molecule: Nc1ncnc2c1c(I)cn2[C@@H]1O[C@H](CO)[C@@H](O)[C@H]1O [5ITu]
- EC50 [1]: 0.365 µM and 0.366 µM and 0.542 µM and 0.168 µM and 0.345 µM and 0.276 µM and 0.265 µM and 0.448 µM
- EC50 (T. brucei BSF cells (WT)): 0.134 µM and 0.378 µM and 0.467 µM and 0.417 µM and 0.291 µM and 0.39 µM and 0.317 µM and 0.247 µM

Molecule: Nc1ncnc2c1nc(Sc1ccc(Cl)cc1)n2[C@@H]1O[C@H](CO)[C@@H](O)[C@H]1O [8-pCPT-Ado, 8-(4-Chlorophenylthio)adenosine]
- effect on in vivo PKA activity (VASP phosphorylation), in words (T. brucei PKA): slight inhibitory

Molecule: Nc1nc(Cl)nc2c1ncn2[C@@H]1O[C@H](CO)[C@@H](O)[C@H]1O [2-Cl-Ado, 2-Chloroadenosine]
- effect on in vivo PKA activity (VASP phosphorylation), in words (T. brucei PKA): no effect

Molecule: myr-PKI(14–22): myristoylated membrane-permeable peptide inhibitor of PKA (Myristoyl-SGRTGRRNA; UniProt P61925 14-22, looked up, fragment)
- VASP phosphorylation upon treatment with inhibitor alone (T. brucei PKA; depending on the inhibitor batch): 3-10%
- effect on in vivo PKA activity (VASP phosphorylation), in words (T. brucei PKA): reduced the measured activity to background

Molecule: Nc1nc2c(nc(Sc3ccc(Cl)cc3)n2[C@@H]2O[C@H](CO)[C@@H](O)[C@H]2O)c(=O)[nH]1 [8-pCPT-Guo, 8-(4-Chlorophenylthio)guanosine]
- effect on in vivo PKA activity (VASP phosphorylation), in words (T. brucei PKA): no effect

Molecule: Nc1ncnc2c1c(Br)cn2[C@@H]1O[C@H](CO)[C@@H](O)[C@H]1O [5BrTu]
- EC50 [1]: 0.68 µM and 1.19 µM and 1.27 µM and 1.09 µM and 0.619 µM and 0.797 µM and 1.17 µM
- EC50 (T. brucei BSF cells (WT)): 0.615 µM and 1.55 µM and 1.12 µM and 0.583 µM and 1.08 µM and 0.749 µM and 0.605 µM and 0.692 µM

Molecule: Nc1ncnc2c1ccn2[C@@H]1O[C@H](CO)[C@@H](O)[C@H]1O [Tubercidin, 7-Deazaadenosine]
- effect on in vivo PKA activity (VASP phosphorylation), in words (T. brucei PKA): No effect
- EC50 [2]: 5 ± 0.5 µM
- In vitro kinase assay ([2]; 0.1 µM): 0.31 U/ml and 0.36 U/ml
- In vitro kinase assay ([2]; 0.78 µM): 0.36 U/ml and 0.39 U/ml
- In vitro kinase assay ([2]; 1.56 µM): 0.39 U/ml and 0.42 U/ml
- In vitro kinase assay ([2]; 3.13 µM): 0.51 U/ml and 0.54 U/ml
- In vitro kinase assay ([2]; 6.25 µM): 0.7 U/ml and 0.67 U/ml
- In vitro kinase assay ([2]; 12.5 µM): 0.84 U/ml and 0.75 U/ml
- In vitro kinase assay ([2]; 25 µM): 0.84 U/ml and 0.93 U/ml
- In vitro kinase assay ([2]; 50 µM): 0.89 U/ml and 0.85 U/ml

Molecule: O=c1ccn([C@@H]2O[C@@H]3COP(=O)(O)O[C@H]3[C@H]2O)c(=O)[nH]1 [cUMP, uridine -3’,5’-cyclic monophosphate]
- effect on basal kinase activity of immunoprecipitated holoenzyme, in words ([3]; 1 mM): did not show any significant effects
- in vitro kinase assay [CPM], PKI ([3]; 1 mM + 5 µM PKI(5-24), Supp Fig 3c): 572.53 CPM
- in vitro kinase assay [CPM], average ([3]; 1 mM, Supp Fig 3c, average of 3): 5670.69 CPM
- in vitro kinase assay [CPM] ([3]; 1 mM, Supp Fig 3c, independent replicates): 4751.21 CPM and 5966.27 CPM and 6294.58 CPM

Molecule: CO[C@@H]1[C@@H]2OP(=O)(O)OC[C@H]2O[C@H]1n1c(Sc2ccc(Cl)cc2)nc2c(N)ncnc21 [8-pCPT-2′-O-Me-cAMP, 8-(4-Chlorophenylthio)-2'-O-methyladenosine-3',5'-cyclic monophosphate]
- effect on in vivo PKA activity (VASP phosphorylation), in words (T. brucei PKA): No PKA activation

Molecule: COC1C2OP(=O)(O)OCC2OC1n1c(Sc2ccc(Cl)cc2)nc2c(=O)[nH]c(N)nc21 (stereo not shown) [8-pCPT-2'O-me-cGMP]
- % VASP phosphorylation (T. brucei PKA; 10 µM): 38.4582% and 35.5972% and 37.6064%
- % VASP phosphorylation (T. brucei PKA; 20 µM): 40.2883% and 38.6651% and 38.3333%
- % VASP phosphorylation (T. brucei PKA; 50 µM): 40.3308% and 52.7132% and 36.328%
- % VASP phosphorylation (T. brucei PKA; 100 µM): 39.4763% and 48.2408% and 35.1104%
- % VASP phosphorylation (T. brucei PKA; 250 µM): 43.9368% and 67.0264% and 36.1457%

Molecule: OC[C@H]1O[C@@H](n2cnc3c(Cl)ncnc32)[C@H](O)[C@@H]1O [6-Cl-PuR, 6-Chloropurine riboside]
- % VASP phosphorylation (T. brucei PKA; 2 µM): 27.0392% and 26.6154% and 24.2815%
- % VASP phosphorylation (T. brucei PKA; 5 µM): 24.7092% and 27.9877% and 23.4187%
- % VASP phosphorylation (T. brucei PKA; 10 µM): 20.6897% and 25.2945% and 23.0524%
- % VASP phosphorylation (T. brucei PKA; 20 µM): 24.6262% and 26.5882% and 23.4334%
- % VASP phosphorylation (T. brucei PKA; 50 µM): 28.7467% and 26.8897% and 25.4464%
- % VASP phosphorylation (T. brucei PKA; 100 µM): 33.239% and 35.1611% and 28.0731%
- effect on in vivo PKA activity (VASP phosphorylation), in words (T. brucei PKA): no effect

Molecule: CO[C@@H]1[C@@H]2OP(=O)(O)OC[C@H]2O[C@H]1n1c(Sc2ccc(Cl)cc2)nc2c(N)ncnc21 [8-pCPT-2'O-me-cAMP]
- % VASP phosphorylation (T. brucei PKA; 10 µM): 41.2113% and 39.9561% and 36.9456%
- % VASP phosphorylation (T. brucei PKA; 20 µM): 34.7976% and 43.6436% and 30.9578%
- % VASP phosphorylation (T. brucei PKA; 50 µM): 31.7213% and 39.4904% and 29.8481%
- % VASP phosphorylation (T. brucei PKA; 100 µM): 33.7045% and 41.4368% and 33.2969%
- % VASP phosphorylation (T. brucei PKA; 250 µM): 30.1497% and 39.413% and 35.4525%
